According to patent EP4759814A1, “TRICYCLIC COMPOUND AND USE THEREOF AS MAT2A INHIBITOR” (SK Biopharmaceuticals Co., Ltd., priority 2023, dated 2025):
Where two headings read alike, the source gives them in different places.

Experiments:
MAT2A = target: T1, MAT2A (Homo sapiens, UniProt P31153); test: MAT2A inhibitory activity, colorimetric phosphate detection (PiColorLock) enzyme assay; type: biochemical; conditions: Test Condition 1 or 2 (not stated which per compound); absorbance at 630 nm
T1 construct: purchased BPS Bioscience (USA) 71401
T1 sequence (P31153 whole entry): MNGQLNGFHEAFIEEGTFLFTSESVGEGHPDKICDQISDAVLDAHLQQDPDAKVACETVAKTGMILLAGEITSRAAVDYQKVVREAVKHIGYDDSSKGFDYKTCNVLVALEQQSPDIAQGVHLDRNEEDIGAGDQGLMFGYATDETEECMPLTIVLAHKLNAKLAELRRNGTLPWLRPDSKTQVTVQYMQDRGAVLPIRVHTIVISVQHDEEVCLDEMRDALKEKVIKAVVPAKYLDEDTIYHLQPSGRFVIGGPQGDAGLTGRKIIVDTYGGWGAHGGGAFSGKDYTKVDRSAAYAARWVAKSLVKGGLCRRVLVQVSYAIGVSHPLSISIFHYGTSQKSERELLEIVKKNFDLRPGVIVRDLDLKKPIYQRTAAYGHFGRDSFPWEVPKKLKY
Description: In vitro assay: Methionine and adenosine triphosphate (ATP) are converted into S-adenosylmethionine (SAM) and inorganic phosphate (pi) via the catalytic action of methionine adenosyltransferase 2A (MAT2A). The produced pi is detected by the PiColorLock™ Phosphate Detection Reagent, which is a colorimetric assay, and the activity of MAT2A can be evaluated according to the amount of pi generated during the enzyme reaction. Each compound was evaluated under Test Condition 1 or 2 as described below.
• Concentration of MAT2A inhibitor: maximum concentration of 50 µM, 5-fold dilution (7 groups in total) • MAT2A concentration: 12 ng/µL • ATP and Met concentration: 100 µM, 80 µM
• Concentration of MAT2A inhibitor: maximum concentration of 1 µM, 3-fold dilution (7 groups in total) • MAT2A concentration: 4 ng/µL • ATP and Met concentration: 300 µM, 150 µM • Reagents: Methionine (catalog number M5308) and ATP (catalog number A2383) were purchased from Sigma-Aldrich (USA). MAT2A (catalog number 71401) was purchased from BPS Bioscience (USA), and PiColorLock™ Phosphate Detection Reagent (catalog number 303-0030) was purchased from Novus (USA).
Assay buffer composition: 50 mM Tris-HCl pH 8.0, 50 mM KCI, 15 mM MgCl2, 0.3 mM EDTA, 0.005 % (w/v) BSA
Experimental procedure: Each compound was diluted 5-fold or 3-fold based on the maximum concentration (5 mM or 1 mM or 0.1 mM) using DMSO. The diluted compounds were diluted 20-fold using assay buffer, and then mixed at a volume ratio of 1:2 with MAT2A (30 ng/µL or 10 ng/µL) diluted with assay buffer and treated for 30 minutes at room temperature. The negative control group is a group untreated with both the MAT2A enzyme and the compound according to an embodiment of the present application, and the positive control group is a group treated only with the MAT2A enzyme and untreated with the compound according to an embodiment of the present application.
In each well of a 384-well plate, 30 µL of the mixed solution and 20 µL of a 1:1 mixed solution of ATP (0.5 mM or 1.5 mM) and Met (0.4 mM or 0.75 mM) were mixed and then treated for 1 hour at room temperature. After the enzyme reaction, 13 µL of a 100:1 mixed solution of PiColorLockTM and Accelerator was treated in each well and reacted for 5 minutes at room temperature. After treating 5 µL of Stabilizer in each well and reacting for 25 minutes at room temperature, the absorbance at 630 nm was measured using SpectraMax M4 (Molecular Devices, USA) to calculate the IC50 value of the compound.
Analysis method: The enzyme activity (%) of each experimental group was calculated as {(average O.D. of compound-treated group - average O.D. of negative control group)/(average O.D. of positive control group - average O.D. of negative control group)} * 100. After preparing a dose-response curve (4-parameter) using the enzyme activity according to the treatment concentration of each compound in GraphPad Prism 9, the 50 % of enzyme inhibitory activity value (IC50) was calculated through non-linear regression analysis. The IC50 results measured for the MAT2A activity inhibitory ability of the compounds according to an embodiment of the present application are shown in Table 2 (+++: more than 1 to 100 nM, ++: more than 100 to 1,000 nM, +: more than 1,000 to 10,000 nM, -: more than 10,000 nM).

[1] = test system: HCT116 (MTAP del) cell line; test: Cell proliferation inhibition in MTAP-deficient cancer cells, WST-1 assay; type: cell-based; conditions: maximum concentration 10 µM, read-out: HCT116 MTAP^-/- (IC50, cell proliferation inhibited by 50%)
Description: (§1) The HCT116 (MTAP del) cell line, which is a colorectal cancer cell line with deletion of MTAP gene, was treated with a compound according to an embodiment of the present application as a MAT2A inhibitor, and after culturing for 120 hours, the change in the number of cells was measured with a WST-1 assay reagent. The WST-1 assay is an assay that measures the number of cells by measuring the generation of a chromogenic substance called formazan from tetrazolium salts by intracellular mitochondrial dehydrogenase. In addition, as a control group, a wild-type colorectal cancer HCT116 (MTAP WT) cell line containing the MTAP gene was used to perform the experiment in the same manner as the experimental group.
(§2) Cell lines and reagents: HCT116 (MTAP WT (catalog number HD PAR-034), MTAP del (catalog number HD R02-033)) cell lines were purchased from Horizon Discovery (USA), and RPMI1640 medium (catalog number 22400-093), FBS (Fetal Bovine serum, catalog number 16000044), and Penicillin/Streptomycin (catalog number 15140-122) were purchased from GIBCO (USA). WST-1 (catalog number EZ-BULK150) was purchased from Dogen (Korea).
(§3) Experimental procedure: HCT116 (MTAP WT, MTAP del) cell lines were dispensed into a 96-well plate at a concentration of 1,000 cells/well in RPMI1640 culture medium containing 10% FBS and 1% Penicillin/Streptomycin, and allowed to attach for 24 hours. When the cells were attached to the plate, the drug was diluted 4-fold from a maximum concentration of 10 µM and treated on the cells. After 120 hours of drug treatment, 20 µL of WST-1 solution was treated for 2 hours, and absorbance at 450 nm was measured using SpectraMax M4 (Molecular Devices). Data analysis was calculated by taking the DMSO control group value as 100%. For the IC50 value, the concentration at which cell proliferation is inhibited by 50% was calculated through interpolation using a 4-parameter fit of the dose-response curve using the GraphPad Prism 8.4.3 program. The cancer cell proliferation inhibitory ability and selectivity in MTAP-deficient cancer cells of the compounds according to an embodiment of the present application are described in Table 3 (+++: 1 to 100 nM, ++: more than 100 to 1,000 nM, +: more than 1 to 10 µM, -: more than 10 µM).

[2] = test system: HCT116 (MTAP WT) cell line; test: Cell proliferation inhibition in wild-type control cells, WST-1 assay; type: cell-based; conditions: maximum concentration 10 µM, read-out: HCT116 WT (IC50, cell proliferation inhibited by 50%)
Description: as §1, §2, §3

[3] = Homo sapiens, HCT-116, 120 h, 120 hours of drug treatment
[4] = Homo sapiens, HCT-116, 120 hours of drug treatment

SMILES | IC50 (MAT2A) | IC50 [1, 4] | IC50 [2, 4] | IC50 ([1]; 120 hours of drug treatment) | IC50 ([2]; 120 hours of drug treatment) | IC50 [1, 3]
Cc1ccccc1-n1c(=O)c2nccn2c2ccc(Cl)cc21 (atropisomer, axis not shown; (Ra)) [Example 20, (Ra)-7-chloro-5-(o-tolyl)imidazo[1,2-a]quinoxalin-4(5H)-one] | > 10000 nM |  |  | > 10000 nM | > 10000 nM | 
Cc1ccccc1-n1c(=O)c2nccn2c2ccc(Cl)cc21 (atropisomer, axis not shown; (Sa)) [Example 21, (Sa)-7-chloro-5-(o-tolyl)imidazo[1,2-a]quinoxalin-4(5H)-one] | 1 to 100 nM |  |  | 1 to 100 nM | > 10000 nM | 
Cc1ncccc1-n1c(=O)c2nccn2c2cc(Cl)c(Br)cc21 (atropisomer, axis not shown; (Sa)) [Example 81, (Sa)-7-bromo-8-chloro-5-(2-methylpyridin-3-yl)imidazo[1,2-a]quinoxalin-4(5H)-one] |  |  |  |  | 1000 to 10000 nM | 1 to 100 nM
Cc1cc2c(cc1C(F)(F)F)n(-c1cccnc1C)c(=O)c1nccn12 (atropisomer, axis not shown; (Sa)) [Example 95, (Sa)-8-methyl-5-(2-methylpyridin-3-yl)-7-(trifluoromethyl)imidazo[1,2-a]quinoxalin-4(5H)-one] |  |  |  |  | > 10000 nM | 1 to 100 nM
Cc1ncccc1-n1c(=O)c2nccn2c2cc(Cl)c(C(F)(F)F)cc21 (atropisomer, axis not shown; (Sa)) [Example 98, (Sa)-8-chloro-5-(2-methylpyridin-3-yl)-7-(trifluoromethyl)imidazo[1,2-a]quinoxalin4(5H)-one] |  |  |  |  | > 10000 nM | 1 to 100 nM
CCc1ncccc1-n1c(=O)c2nccn2c2cc(Cl)c(C(F)(F)F)cc21 (atropisomer, axis not shown; (Sa)) [Example 112, (Sa)-8-chloro-5-(2-ethylpyridin-3-yl)-7-(trifluoromethyl)imidazo[1,2-a]quinoxalin4(5H)-one] |  |  |  |  |  | > 10000 nM
Cc1ccccc1-n1c(=O)c2nccn2c2ccc(Cl)cc21 [Example 1, 7-chloro-5-(o-tolyl)imidazo[1,2-a]quinoxalin-4(5H)-one] | 100 to 1000 nM | 100 to 1000 nM | > 10000 nM |  |  | 
CC(C)c1ccccc1-n1c(=O)c2nccn2c2ccc(Cl)cc21 [Example 5, 7-chloro-5-(2-isopropylphenyl)imidazo[1,2-a]quinoxalin-4(5H)-one] | 100 to 1000 nM | 1000 to 10000 nM | > 10000 nM |  |  | 
O=c1c2nccn2c2ccc(Cl)cc2n1-c1ccccc1C(F)(F)F [Example 7, 7-chloro-5-(2-(trifluoromethyl)phenyl)imidazo[1,2-a]quinoxalin-4(5H)-one] | 100 to 1000 nM | 1000 to 10000 nM | > 10000 nM |  |  | 
Cc1cc(F)ccc1-n1c(=O)c2nccn2c2ccc(Cl)cc21 [Example 8, 7-chloro-5-(4-fluoro-2-methylphenyl)imidazo[1,2-a]quinoxalin-4(5H)-one] | 1000 to 10000 nM | > 10000 nM | > 10000 nM |  |  | 

Further lines, with some results ahead:

IC50 (MAT2A) | IC50 [1, 4] | IC50 [2, 4] | SMILES | IC50 ([1]; 120 hours of drug treatment) | IC50 ([2]; 120 hours of drug treatment) | IC50 [1, 3]
100 to 1000 nM | 1000 to 10000 nM | > 10000 nM | O=c1c2nccn2c2ccc(Cl)cc2n1-c1ccccc1 [Example 2, 7-chloro-5-phenylimidazo[1,2-a]quinoxalin-4(5H)-one] |  |  | 
100 to 1000 nM | 100 to 1000 nM | > 10000 nM | CCc1ccccc1-n1c(=O)c2nccn2c2ccc(Cl)cc21 [Example 3, 7-chloro-5-(2-ethylphenyl)imidazo[1,2-a]quinoxalin-4(5H)-one] |  |  | 
100 to 1000 nM | 100 to 1000 nM | > 10000 nM | Cc1cccc(-n2c(=O)c3nccn3c3ccc(Cl)cc32)c1C [Example 4, 7-chloro-5-(2,3-dimethylphenyl)imidazo[1,2-a]quinoxalin-4(5H)-one] |  |  | 
100 to 1000 nM | 100 to 1000 nM | 1000 to 10000 nM | Cc1c(F)cccc1-n1c(=O)c2nccn2c2ccc(Cl)cc21 [Example 6, 7-chloro-5-(3-fluoro-2-methylphenyl)imidazo[1,2-a]quinoxalin-4(5H)-one] |  |  | 
> 10000 nM | > 10000 nM | > 10000 nM | Cc1ccc(F)cc1-n1c(=O)c2nccn2c2ccc(Cl)cc21 [Example 9, 7-chloro-5-(5-fluoro-2-methylphenyl)imidazo[1,2-a]quinoxalin-4(5H)-one] |  |  | 
1 to 100 nM | 1 to 100 nM | 100 to 1000 nM | Cc1c(F)cccc1-n1c(=O)c2nccn2c2ccc(C(F)(F)F)cc21 [Example 10, 5-(3-fluoro-2-methylphenyl)-7-(trifluoromethyl)imidazo[1,2-a]quinoxalin-4(5H)-one] |  |  | 
100 to 1000 nM | 1 to 100 nM | 100 to 1000 nM | Cc1c(Cl)cccc1-n1c(=O)c2nccn2c2ccc(Cl)cc21 [Example 11, 7-chloro-5-(3-chloro-2-methylphenyl)imidazo[1,2-a]quinoxalin-4(5H)-one] |  |  | 
100 to 1000 nM | 100 to 1000 nM | > 10000 nM | Cc1c(F)cccc1-n1c(=O)c2nccn2c2ccc(C3CC3)cc21 [Example 13, 7-cyclopropyl-5-(3-fluoro-2-methylphenyl)imidazo[1,2-a]quinoxalin-4(5H)-one] |  |  | 
100 to 1000 nM | 100 to 1000 nM | > 10000 nM | COc1ccc2c(c1)n(-c1cccc(F)c1C)c(=O)c1nccn12 [Example 14, 5-(3-fluoro-2-methylphenyl)-7-methoxyimidazo[1,2-a]quinoxalin-4(5H)-one] |  |  | 
1000 to 10000 nM | 100 to 1000 nM | > 10000 nM | Cc1c(F)cccc1-n1c(=O)c2nccn2c2ccc(OC(F)(F)F)cc21 [Example 15, 5-(3-fluoro-2-methylphenyl)-7-(trifluoromethoxy)imidazo[1,2-a]quinoxalin-4(5H)-one] |  |  | 
